Test [1] has as its system Botrytis cinerea. The test can be described thus: B. cinerea inoculation of Arabidopsis leaves: necrotic lesion area and in planta growth. The test is classed as in vivo. As to the method: For “in planta” growth test of Botrytis cinerea and histochemical assays, five-week-old Col-0 plants were germinated in soil and grown in controlled chamber ( 8/16 h light/dark at 22/20° C. day/night) with a relative humidity equal to 70%. Treatments were performed by applying 40-50 μl of fresh-prepared and filtered solution per leaf.
Botrytis cinerea (strain B05.10, from the INRA/IJPB Institute, Versailles, France) was grown on potato dextrose agar medium at 21° C., with a photoperiod of 12 h light/12 h dark. Leaves were inoculated with two 5-μL droplets of B. cinerea spores (5×10^5 spores ml-1). At the indicated time points, genomic DNA from whole leaves was extracted following the modified protocol of Edwards et al. (A simple and rapid method for the preparation of plant genomic DNA for PCR analysis. Nucl. Acid. Res. 1991, vol. 19, 13491991) and fungal biomass was quantified as described by Gachon and Saindrenan (Real-time PCR monitoring of fungal development in Arabidopsis thaliana infected by Alternaria brassicicola and Botrytis cinerea. Plant Physiol Biochem. 2004, vol. 42, 367-371).
Three days after fungus inoculation, the areas of the developing necrotic lesions were analysed by ImageJ software and the B. cinerea “in planta” growth was evaluated through qPCR. […]

The test system of test [2] is camalexin. The test can be described thus: Camalexin quantification by LC-MS. The test is classed as in vivo, Arabidopsis thaliana. The following applies: 100 μM, 24 h, 14-day-old Col-0 plants. As to the method: For each treatment, camalexin was extracted from a pool of 14-day-old Arabidopsis. Briefly, 100 mg of ground-frozen samples were soaked using 80% (v:v) methanol in 1:1 (m/v) ratio. After homogenization, the supernatant was recovered through centrifugation at 17,000×g for 5 min and evaporated at 50° C. in nitrogen gas atmosphere. The residues were finally resuspended in high-performance LC-grade methanol and filtrated with 0.22-μm filters. Each pool was then analysed three times by LC-MS, using a reverse-phase LUNA® Omega 5 μm Polar C18 column (250×4.6 mm). The mobile phases were composed of 0.1% […] (solvent A) and acetonitrile (solvent B). The applied gradient was as follows: 0-2 min, 10% B; 2-13 min, 10-98% B; 13-23 min, 98% B; 23-25 min, 98-10% B; 25-30 min, […]; post-run 1 min.

For test [3], the system named is oxidative burst. The test can be described thus: Oxidative burst detection (DAB, NBT, luminol-based assays). The test is classed as in vivo, Arabidopsis thaliana. As to the method: Hydrogen peroxide was assayed in both in vitro-growth and in soil-growth Arabidopsis plants. In situ detection of H2O2 was performed following the protocol described by Daudi and O'Brien (Detection of Hydrogen Peroxide by DAB Staining in Arabidopsis Leaves. Bio Protoc. 2012, vol. 2(18), e263). Briefly, 5-week-old Col-O plants leaves were droplet-treated (40-50 μl drops per leaf) with indicated compounds. At 24 h after treatment four rosette leaves from five independent plants were gently vacuum-infiltrated (5 min) with 1 mg ml^−1 3,3′-diaminobenzidine (DAB) dissolved in 10 mM sodium phosphate buffer and 0.05% v/v Tween 80. The staining reaction was terminated 5 h after DAB infiltration, and leaves were fixed in ethanol:glycerol:acetic acid 3:1:1. Chlorophyll was removed by several washing steps with 70% v/v ethanol and pictures were token with a stereomicroscope (Discovery V8, Zeiss).
Elicitor-induced H2O2 was also detected by luminol-peroxidase-based assay as described by Albert et al. (Chemiluminescence Detection of the Oxidative Burst in Plant Leaf Pieces. Bio-protocol 2015, vol. 5(6), e1423). Briefly, twenty leaves from 10 independent 4-5-week-old Col-0 plants were cut and incubated in ddH2O overnight. Time course luminescence was evaluated using The SpectraMax iD3 Multi-Mode Microplate Reader (Molecular devices, San Jose, CA, USA) with an integration time per well=1000 ms. […]

Each structure is given as a SMILES string.

Turning to `OC[C@H]1O[C@@H](O[C@H]2[C@H](O)[C@@H](O)[C@H](O)O[C@@H]2CO)[C@H](O)[C@@H](O)[C@@H]1O` [Cellobiose, β-D-glucopyranosyl(1→4)D-glucopyranose], the “reduction of average sizes of necrotic lesions compared with untreated leaves” value in test [1] (100 μM pre-treatment 24 h before inoculation, three days after inoculation) was “a little protection”. Besides, the “reduction of B. cinerea in planta growth (fungus biomass, qPCR)” value in test [1] (100 μM pre-treatment, 3 days after infection) is on record as “slight reduction”. This compound also displayed a camalexin level in test [2] of 3.7 ± 1.8 ng/g. In addition, the “short-term extracellular H2O2 production (luminol-based assay)” value in test [3] (14-day old plants) is “no H2O2 production was detected”. Further, the “in situ production of H2O2 and O2− (DAB and NBT assays)” value in test [3] (24 h after treatments, 5-week old plants) is “no measurable production”.
